Results published in US11945794B2, “Nuclear transport modulators and uses thereof” (Karyopharm Therapeutics Inc., priority 2013, dated 2024).

What was measured:
[1] = target: T1, CRM1 (Homo sapiens, UniProt O14980); assay: Inhibition of nuclear export, RevGFP assay in U2OS-RevGFP cells; assay type: cell-based; settings: approximately 1 hour incubation
T1 construct: endogenous in cells; host or cells: U2OS cells stably expressing Rev-GFP
Protocol: The inhibition of CRM1 mediated nuclear export by compounds of the invention was determined in a RevGFP assay. Rev is a protein from human immunodeficiency virus type 1 (HIV-1) and contains a nuclear export signal (NES) in its C-terminal domain and a nuclear localization signal (NLS) in its N-terminal domain. Nuclear export of Rev protein is dependent on the classical NES/CRM1 pathway (Neville et al, 1997, Kau et al, 2003).
In this assay, U2OS-RevGFP cells were seeded onto clear-bottom, black, 384-well plates the day before the experiment. Compounds were serially diluted 1:2 starting from 40 μM in a separate 384-well plate in DMEM, and then transferred onto cells. Cells were incubated with compound for approximately 1 hour before fixation with 3.7% formaldehyde and nuclei staining with Hoechst 33258. The amount of GFP in cell nuclei was measured and compound IC50s were determined (Kau et al, 2003).

[2] = test system: MM1S cells; assay: MTT cell proliferation assay; assay type: cell-based; settings: Homo sapiens, MM1.S, approximately 64-72 hours
Protocol: (§1) The MTT cell proliferation assay was used to study the cytotoxic properties of the compounds. The assay was performed according to the method described by Roche Molecular Biochemicals, with minor modifications. The assay is based on the cleavage of the tetrazolium salt, MTT, in the presence of an electron-coupling reagent. The water-insoluble formazan salt produced must be solubilized in an additional step. Cells grown in a 96-well tissue culture plate were incubated with the MTT solution for approximately 4 hours. After this incubation period, a water-insoluble formazan dye formed. After solubilization, the formazan dye was quantitated using a scanning multi-well spectrophotometer (ELISA reader). […] The cells were seeded at 5,000-10,000 cells in each well of 96-well plate in 100 μL of fresh culture medium and were allowed to attach overnight. The stock solutions of the compounds were diluted in 100 μL cell culture medium to obtain eight concentrations of each test compound, ranging from 1 nM to 30 μM. […] All optical densities were measured at 490 nm using a Vmax Kinetic Microplate Reader (Molecular Devices). In most cases, the assay was performed in duplicate and the results were presented as a mean percent inhibition to the negative control±SE. The following formula was used to calculate the percent of inhibition: Inhibition (%)=(1−(ODo/OD))×100.
(§2) The compounds were tested against Z138, MM1S and 3T3 cells. The Z138 cell line is a mature B-cell acute lymphoblastic leukemia cell line derived from a patient with chronic lumphocytic leukemia. The MM1S cell line was established from the peripheral blood of a human multiple myeloma patient. 3T3 cells are standard fibroblast cells; they were originally isolated from Swiss mouse embryo tissue.

[3] = test system: 3T3 cells; assay: MTT cell proliferation assay; assay type: cell-based; settings: Mus musculus, NIH3T3, approximately 64-72 hours
Protocol: as §1, §2

[4] = test system: Z138 cells; assay: MTT cell proliferation assay; assay type: cell-based; settings: Homo sapiens, Z-138, approximately 64-72 hours
Protocol: as §1, §2

[5] = test system: MDA-MB-468 xenograft; assay: MDA-MB-468 xenograft model; assay type: in vivo, mouse; settings: 10 mg/kg PO once daily, CB-17 SCID mice, compared to vehicle
Protocol: MDA-MB-468 (ATCC #HTB-102) breast adenocarcinoma cells were obtained from ATCC. These cells were grown in high glucose DMEM medium supplemented with 10% fetal bovine serum, 1% penicillin and streptomycin, and 2 mM L-Glutamine. Cells were sub-cultured by dilution at a ratio of 1:4. MDA-MB-468 cells were harvested by trypsinization and counted using a hemocytometer. Cells were resuspended in PBS at a concentration of 4×10^8 cells per mL. Cells were placed on ice and mixed with an equal volume of Matrigel (BD Biosciences CB-40234). Twenty-two (22) CB-17 SCID mice were inoculated sub-cutaneously in the left flank with 4×10^7 MDA-MB-468 cells. Treatment was initiated when the tumors reached a mean volume of ˜100 mm^3. […] Animals' weights and condition were recorded daily, and tumors were measured on Mondays, Wednesdays, and Fridays.

T1 sequence (O14980 whole entry): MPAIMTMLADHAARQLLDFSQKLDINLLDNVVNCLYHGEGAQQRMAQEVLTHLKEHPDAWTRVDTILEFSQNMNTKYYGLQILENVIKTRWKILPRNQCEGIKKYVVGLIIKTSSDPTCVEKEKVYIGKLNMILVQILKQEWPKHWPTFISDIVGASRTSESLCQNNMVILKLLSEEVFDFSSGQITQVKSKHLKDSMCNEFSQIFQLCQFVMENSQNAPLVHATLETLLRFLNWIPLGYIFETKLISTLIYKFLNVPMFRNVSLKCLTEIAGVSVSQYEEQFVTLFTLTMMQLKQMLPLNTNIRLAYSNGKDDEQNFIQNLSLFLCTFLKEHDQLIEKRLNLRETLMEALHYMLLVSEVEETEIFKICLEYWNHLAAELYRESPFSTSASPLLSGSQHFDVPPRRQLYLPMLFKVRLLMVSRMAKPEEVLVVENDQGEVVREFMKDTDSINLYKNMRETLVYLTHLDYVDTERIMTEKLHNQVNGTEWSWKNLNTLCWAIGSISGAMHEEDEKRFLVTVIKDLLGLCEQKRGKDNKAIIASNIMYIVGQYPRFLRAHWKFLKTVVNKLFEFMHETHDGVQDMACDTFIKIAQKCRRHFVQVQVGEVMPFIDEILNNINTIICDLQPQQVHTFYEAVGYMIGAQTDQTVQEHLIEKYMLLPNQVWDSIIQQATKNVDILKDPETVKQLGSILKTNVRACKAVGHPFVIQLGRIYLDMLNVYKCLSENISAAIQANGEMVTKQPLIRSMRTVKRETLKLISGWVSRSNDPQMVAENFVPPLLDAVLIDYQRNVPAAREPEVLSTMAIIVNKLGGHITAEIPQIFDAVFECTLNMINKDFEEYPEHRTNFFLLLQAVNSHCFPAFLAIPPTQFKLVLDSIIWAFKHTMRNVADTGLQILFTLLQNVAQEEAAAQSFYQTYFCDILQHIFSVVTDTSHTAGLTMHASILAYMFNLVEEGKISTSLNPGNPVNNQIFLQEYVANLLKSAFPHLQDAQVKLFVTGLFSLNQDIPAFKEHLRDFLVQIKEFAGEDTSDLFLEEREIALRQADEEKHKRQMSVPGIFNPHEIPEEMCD

Row | Compound | IC50 [1] | IC50 [2] | IC50 [3] | IC50 [4] | mean tumor volume [5]
1 | NC(=O)/C(=C/n1cnc(-c2cc(C(F)(F)F)cc(C(F)(F)F)c2)n1)c1cnc2ccccc2c1 [Compound 149, (E)-3-(3-(3,5-bis(trifluoromethyl)phenyl)-1H-1,2,4-triazol-1-yl)-2-(quinolin-3-yl)acrylamide] | < 100 nM | < 100 nM | > 30000 nM | < 100 nM | mean tumor volume was reduced
2 | NC(=O)/C(=C/n1cnc(-c2cc(C(F)(F)F)cc(C(F)(F)F)c2)n1)c1cnc(F)nc1 [Compound 137, (E)-3-(3-(3,5-bis(trifluoromethyl)phenyl)-1H-1,2,4-triazol-1-yl)-2-(2-fluoropyrimidin-5-yl)acrylamide] | < 100 nM | < 100 nM | > 30000 nM | 100 to 5000 nM | 
3 | NC(=O)/C(=C\n1cnc(-c2cc(C(F)(F)F)cc(C(F)(F)F)c2)n1)c1ccc(Cl)nc1 [Compound 156, (Z)-3-(3-(3,5-bis(trifluoromethyl)phenyl)-1H-1,2,4-triazol-1-yl)-2-(6-chloropyridin-3-yl)acrylamide] | 100 to 5000 nM | 100 to 5000 nM | > 30000 nM | 100 to 5000 nM | 
4 | CC(C)OC(=O)/C(=C/n1cnc(-c2cc(C(F)(F)F)cc(C(F)(F)F)c2)n1)c1cncc(F)c1 [Compound 119, isopropyl (E)-3-(3-(3,5-bis(trifluoromethyl)phenyl)-1H-1,2,4-triazol-1-yl)-2-(5-fluoropyridin-3-yl)acrylate] | 100 to 5000 nM | 100 to 5000 nM | > 30000 nM | 100 to 5000 nM | 
5 | N#C/C(=C/n1cnc(-c2cc(C(F)(F)F)cc(C(F)(F)F)c2)n1)c1cccnc1 [Compound 102, (E)-3-(3-(3,5-bis(trifluoromethyl)phenyl)-1H-1,2,4-triazol-1-yl)-2-(pyridin-3-yl)acrylonitrile] | 100 to 5000 nM | 100 to 5000 nM | 5000 to 30000 nM | 100 to 5000 nM | 
6 | NC(=O)/C(=C/n1cnc(-c2cc(C(F)(F)F)cc(C(F)(F)F)c2)n1)c1ccnc(F)c1 [Compound 140, (E)-3-(3-(3,5-bis(trifluoromethyl)phenyl)-1H-1,2,4-triazol-1-yl)-2-(2-fluoropyridin-4-yl)acrylamide] | < 100 nM | < 100 nM | > 30000 nM | < 100 nM | 
